Measured values reported in publication PMC3648344 (BMC Structural Biology, 2013).

Target: T1, ypMnmC (Yersinia pestis, UniProt Q8ZD36)
T1 construct: gene mnmC
Settings: selenomethionyl protein; co-purified FAD, none added; MnmC1 domain site; also in 3SGL with SAM

T1 sequence (Q8ZD36 whole entry, looked up): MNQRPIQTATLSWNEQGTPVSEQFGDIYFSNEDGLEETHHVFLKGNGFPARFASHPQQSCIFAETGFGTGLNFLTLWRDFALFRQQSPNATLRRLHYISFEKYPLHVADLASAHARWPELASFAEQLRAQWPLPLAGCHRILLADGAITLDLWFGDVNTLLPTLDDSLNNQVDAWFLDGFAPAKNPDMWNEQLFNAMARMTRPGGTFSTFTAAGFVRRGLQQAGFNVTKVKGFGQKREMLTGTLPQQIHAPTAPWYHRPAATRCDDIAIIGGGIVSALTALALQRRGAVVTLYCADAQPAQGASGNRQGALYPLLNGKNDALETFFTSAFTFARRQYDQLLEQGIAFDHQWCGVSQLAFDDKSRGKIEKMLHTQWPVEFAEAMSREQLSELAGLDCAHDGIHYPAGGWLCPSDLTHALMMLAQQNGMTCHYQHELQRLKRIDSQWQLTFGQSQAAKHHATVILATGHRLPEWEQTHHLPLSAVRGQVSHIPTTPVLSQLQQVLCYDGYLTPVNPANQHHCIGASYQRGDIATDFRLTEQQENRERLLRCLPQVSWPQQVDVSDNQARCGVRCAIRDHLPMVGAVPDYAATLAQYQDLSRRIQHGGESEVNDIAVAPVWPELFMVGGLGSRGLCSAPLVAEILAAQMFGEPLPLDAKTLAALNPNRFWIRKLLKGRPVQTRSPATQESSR

SMILES: Cc1cc2nc3c(=O)[nH]c(=O)nc-3n(C[C@H](O)[C@H](O)[C@H](O)COP(=O)(O)OP(=O)(O)OC[C@H]3O[C@@H](n4cnc5c(N)ncnc54)[C@H](O)[C@@H]3O)c2cc1C [FAD]
- X-ray crystal structure, 2.30 Å: All three MnmC structures unambiguously exhibited bound FAD (Figure 4A)
